Measurements reported in patent US6785989B2, “Methods and apparatus for removal of wrinkles from fabrics” (The Procter & Gamble Company, priority 2000, dated 2004).

Assay: Perfume component interaction with cyclodextrin (CD interaction)
Assay type: physicochemical
Conditions: perfume component complexing with cyclodextrin
Text: The following table illustrates the molecular weight property of some of the preferred perfume versus non-preferred perfume components.

Compound | CD interaction
CC(=O)OC(C)(C)C1CC=C(C)CC1 (centres unmarked) [Terpinyl Acetate] | significant
CC(=O)C(C)=C(C)C(C)C(C)(C)C (centres unmarked) [Koavone] | strong
CCCCCCC(C=O)=Cc1ccccc1 [Hexyl cinnamic Aldehyde] | weak
a-Me Ionone | strong
CCCCCC1C(=O)CCC1CC(=O)OC (centres unmarked) [Methyl Dihydro Jasmonate] | weak
CCC(C)(O)CCCC(C)C (centres unmarked) [Tetrahydrolinalol] | significant
CC(C=O)Cc1ccc(C(C)C)cc1 (centres unmarked) [Cymal] | strong
CC1COCc2cc3c(cc21)C(C)(C)C(C)C3(C)C (centres unmarked) [Galaxolide] | weak
CCOC(=O)c1ccccc1C(=O)OCC [Diethyl Phthalate] | weak
O=C(Cc1ccccc1)OCCc1ccccc1 [Phenyl-Ethyl-Phenyl Acetate] | weak
CC(=O)OC1CCC(C(C)(C)C)CC1 (centres unmarked) [Vertenex, para-tert-butylcyclohexyl acetate] | strong
CC(=O)C1(C)CC2=C(CCCC2(C)C)CC1C (centres unmarked) [Iso-E Super] | weak
CC(C)(O)CCCC1=CCC(C=O)CC1 (centres unmarked) [Lyral] | weak
CCCCCCCCCCCCCC(=O)OC(C)C [Iso-propyl Myristate] | weak
CC(=O)/C=C/C1C(C)=CCCC1(C)C (centres unmarked) [a-ionone] | strong
CCC(=O)OC1CC2CC1C1CC=CC21 (centres unmarked) [Frutene] | strong
CC(C=O)Cc1ccc(C(C)(C)C)cc1 (centres unmarked) [Lilial, p-t-bucinal] | strong
CC(=O)OC1CC2CC1C1CC=CC21 (centres unmarked) [Flor Acetate] | strong
CCCCCCOC(=O)c1ccccc1O [Hexyl Salicylate] | weak

Assay: not given
Conditions: cited from earlier work

Compound | solubility in water
[Na+].[O-][n+]1ccccc1[S-] [sodium pyrithione] | about 50%
CC(C)(O)C(Cl)(Cl)Cl [chlorobutanol, 1,1,1-Trichloro-2-methylpropan-2-ol] | about 0.8%
O=[N+]([O-])C1(Br)COCOC1 [Bronidox L, 5-bromo-5-nitro-1,3-dioxane] | about 0.46%
OCCOc1ccccc1 [2-phenoxyethanol] | about 2.67%
ClC=CC[N+]12CN3CN(CN(C3)C1)C2.[Cl-] [Dowicil 200, 1-(3-Chlorallyl)-3,5,7-triaza-1-azoniaadamantane chloride] | freely soluble
CC1(C)C(=O)N(CO)C(=O)N1CO [DMDM hydantoin, 1,3-bis(hydroxymethyl)-5,5-dimethyl-2,4-imidazolidinedione] | more than 50%
OCCc1ccccc1 [2-phenylethanol] | about 2%
[H]/N=C(\N/C(=N/[H])NCCCCCCNC(=N)NC(=N)Nc1ccc(Cl)cc1)Nc1ccc(Cl)cc1 [chlorhexidine digluconate, 1,1′-hexamethylene bis(5-(p-chlorophenyl)biguanide), reference compound] | about 70%
OCc1ccccc1 [benzyl alcohol] | about 4%
[H]/N=C(\N/C(=N/[H])NCCCCCCNC(=N)NC(=N)Nc1ccc(Cl)cc1)Nc1ccc(Cl)cc1 [chlorhexidine diacetate, 1,1′-hexamethylene bis(5-(p-chlorophenyl)biguanide), reference compound] | about 1.8%
